According to ChEMBL document CHEMBL5653610, “The novel phosphodiesterase 10A inhibitor THPP-1 has antipsychotic-like effects in rat and improves cognition in rat and rhesus monkey” (Neuropharmacology, 2013):
Active and inactive are the calls of the source. The rule behind the calls is not given here.

Experiments:
[1] = Unbound drug level in Wistar Hannover rat plasma at 0.1 mg/kg, po after 2 hrs by UPLC-MS analysis; type: ADME, organism-based; details: in vivo
[2] = Unbound drug level in Wistar Hannover rat plasma at 0.3 mg/kg, po after 2 hrs by UPLC-MS analysis; type: ADME, organism-based; details: in vivo
[3] = Unbound drug level in Wistar Hannover rat plasma at 1 mg/kg, po after 2 hrs by UPLC-MS analysis; type: ADME, organism-based; details: in vivo
[4] = Unbound drug level in Wistar Hannover rat plasma at 3 mg/kg, po after 2 hrs by UPLC-MS analysis; type: ADME, organism-based; details: in vivo
[5] = Unbound drug level in Wistar Hannover rat plasma at 10 mg/kg, po after 2 hrs by UPLC-MS analysis; type: ADME, organism-based; details: in vivo
[6] = Unbound drug level in Wistar Hannover rat plasma at 30 mg/kg, po after 2 hrs by UPLC-MS analysis; type: ADME, organism-based; details: in vivo
[7] = Drug level in Wistar Hannover rat CSF at 0.1 mg/kg, po after 2 hrs by UPLC-MS analysis; type: ADME, organism-based, Cerebrospinal fluid; details: read-out: Drug uptake
[8] = Drug level in Wistar Hannover rat CSF at 0.3 mg/kg, po after 2 hrs by UPLC-MS analysis; type: ADME, organism-based, Cerebrospinal fluid; details: read-out: Drug uptake
[9] = Drug level in Wistar Hannover rat CSF at 1 mg/kg, po after 2 hrs by UPLC-MS analysis; type: ADME, organism-based, Cerebrospinal fluid; details: read-out: Drug uptake
[10] = Drug level in Wistar Hannover rat CSF at 3 mg/kg, po after 2 hrs by UPLC-MS analysis; type: ADME, organism-based, Cerebrospinal fluid; details: read-out: Drug uptake
[11] = Drug level in Wistar Hannover rat CSF at 10 mg/kg, po after 2 hrs by UPLC-MS analysis; type: ADME, organism-based, Cerebrospinal fluid; details: read-out: Drug uptake
[12] = Drug level in Wistar Hannover rat CSF at 30 mg/kg, po after 2 hrs by UPLC-MS analysis; type: ADME, organism-based, Cerebrospinal fluid; details: read-out: Drug uptake
Rattus norvegicus [13] = test: Antipsychotic activity in Wistar Hannover rat assessed as reduction in MK-801-induced psychomotor activity at 1.5 to 4.5 mg/kg, po dosed 120 mins before MK-801 challenge and measured after 180 mins; type: functional, organism-based; details: dose 1.5-4.5 mg/kg, time 300.0 min
Rattus norvegicus [14] = test: Antipsychotic activity in Wistar Hannover rat assessed as reduction in MK-801-induced psychomotor activity at 3 mg/kg, po for 14 days followed by drug dosing at 3 mg/kg, po 120 mins before MK-801 challenge; type: functional, organism-based; details: time 20280.0 min
Rattus norvegicus [15] = test: Antipsychotic activity in Wistar Hannover rat assessed as reduction in conditioned avoidance responding at 1 to 3 mg/kg, po dosed 120 mins before testing; type: functional, organism-based; details: dose 1-3 mg/kg
Rattus norvegicus [16] = test: Antipsychotic activity in Wistar Hannover rat assessed as increase in recognition at 0.3 mg/kg, po dosed 90 mins before identical objects by novel object recognition test; type: functional, organism-based
Rattus norvegicus [17] = test: Antipsychotic activity in Wistar Hannover rat assessed as increase in recognition at 1 mg/kg, po dosed 90 mins before identical objects by novel object recognition test; type: functional, organism-based
Rattus norvegicus [18] = test: Reduction in locomotor activity in Wistar Hannover rat at 1 mg/kg, po dosed 90 mins before identical objects by novel object recognition test; type: functional, organism-based
Rattus norvegicus [19] = test: Reduction in object exploration in Wistar Hannover rat at 1 mg/kg, po dosed 90 mins before identical objects by novel object recognition test; type: functional, organism-based
Rhesus monkey [20] = test: Antipsychotic activity in rhesus monkey assessed as blocking of ketamine impaired performance on difficult trials at 3 mg/kg, po dosed for 4 days prior to testing and on day 5 drug was administered orally 2 h prior to testing by object retrieval detour task; type: functional, organism-based; details: Macaca mulatta, time 5.0 day
Rhesus monkey [21] = test: Antipsychotic activity in rhesus monkey assessed as attenuation of ketamine impaired performance on difficult trials at 3 mg/kg, po dosed for 4 days prior to testing and on day 5 drug was administered orally 2 h prior to testing by object retrieval detour task; type: functional, organism-based; details: Macaca mulatta, time 4.0 day
[22] = Total drug level in plasma of Wistar Hannover rat engaged in object retrieval detour task at 3 mg/kg, po dosed for 4 days prior to testing and on day 5 drug was administered orally 2 h prior to testing and measured after 4 hrs by UPLC-MS analysis; type: ADME, organism-based; details: time 5 day
[23] = Total drug level in plasma of […] engaged in object retrieval detour task at 10 mg/kg, po dosed for 4 days prior to testing and on day 5 drug was administered orally 2 h prior to testing and measured after 4 hrs by UPLC-MS analysis; type: ADME, organism-based; details: time 5 day
[24] = Total drug level in plasma of Wistar Hannover rat not-engaged in object retrieval detour task at 10 mg/kg, po dosed for 4 days prior to testing and on day 5 drug was administered orally 2 h prior to testing and measured after 4 hrs by UPLC-MS analysis; type: ADME, organism-based; details: time 5 day
[25] = Unbound drug level in plasma of Wistar Hannover rat engaged in object retrieval detour task at 3 mg/kg, po dosed for 4 days prior to testing and on day 5 drug was administered orally 2 h prior to testing and measured after 4 hrs by UPLC-MS analysis; type: ADME, organism-based; details: in vivo, 120 h, time 5 day
[26] = Unbound drug level in plasma of Wistar Hannover rat engaged in object retrieval detour task at 10 mg/kg, po dosed for 4 days prior to testing and on day 5 drug was administered orally 2 h prior to testing and measured after 4 hrs by UPLC-MS analysis; type: ADME, organism-based; details: in vivo, 120 h, time 5 day
[27] = Unbound drug level in plasma of Wistar Hannover rat not-engaged in object retrieval detour task at 10 mg/kg, po dosed for 4 days prior to testing and on day 5 drug was administered orally 2 h prior to testing and measured after 4 hrs by UPLC-MS analysis; type: ADME, organism-based; details: in vivo, 120 h, time 5 day
[28] = Mean drug level in plasma of Wistar Hannover rat at 10 mg/kg, po dosed as single dose after 4 hrs by UPLC-MS analysis; type: ADME, organism-based

COCCOc1nc(-c2ccc(Cl)nc2)nc2c1CN(C(=O)c1ncn3ccccc13)CC2 [THPP-1]
Cp(f) [1]: 0.6 nM
Cp(f) [2]: 2.1 nM
Cp(f) [3]: 4.9 nM
Cp(f) [4]: 13.4 nM
Cp(f) [5]: 23.8 nM
Cp(f) [6]: 32.5 nM
concentration at 2 h [7]: 1 nM
concentration at 2 h [8]: 3 nM
concentration at 2 h [9]: 4.2 nM
concentration at 2 h [10]: 8.3 nM
concentration at 2 h [11]: 16.1 nM
concentration at 2 h [12]: 20.1 nM
Activity (Rattus norvegicus [13]): Dose-Dependent Effect
Activity (Rattus norvegicus [14]): Active
Activity (Rattus norvegicus [15]): Dose-Dependent Effect
Activity (Rattus norvegicus [16]): Active
Activity (Rattus norvegicus [17]): Active
Activity (Rattus norvegicus [18]): Active
Activity (Rattus norvegicus [19]): Active
Activity (Rhesus monkey [20]): inactive
Activity (Rhesus monkey [21]): Active
concentration at 120 h [22]: 592 nM
concentration at 120 h [23]: 1600 nM
concentration at 120 h [24]: 2820 nM
Cp(f) [25]: 7 nM
Cp(f) [26]: 19 nM
Cp(f) [27]: 34 nM
concentration at 4 h [28]: 1530 nM
